Measurements taken from US10159265B2, “Feed composition for reducing ruminant methanogenesis” (priority 2012, dated 2018).
Entries after “also recorded” stand apart in the source; their conditions may differ. Marks after values point to notes of the source that are not given here.

Assays:
[1] = test system: methanogenic (archea) populations; assay: Methane production in "in vitro" rumen fluid culture; format: cell-based, calves; design: Average methane production / Accumulated methane production / Methane production / Cumulative methane production: unit not given here; conditions: Exp 1
Source text: (§1) Two trials following an identical experimental protocol were designed to study the effect of different pure flavonoids on rumen fermentation using a simulatory “in vitro” system based on the experimental protocol described by Theodorou M K et al. (1994) Animal Feed Science and Technology, 48 (3), p. 185-197; Mauricio, R. M., et al. (1999) Animal Feed Science and Technology 79, 321-330.
(§2) Rumen cannulated calves which received a mixed ration mainly composed of concentrate (90:10) were used as rumen fluid donor; feed composition is presented in Table 1. The inoculum was collected and filtered through two-layer surgical gauze and kept in thermo pots. Flavonoids (Table 2) plus 600 mg of concentrate (Table 1) and 60 mg of barley straw as the substrate were dosed by triplicate in preheated bottles (39° C.) and maintained under anaerobic conditions. Flavonoids isonaringin, neoeritrocin, poncirin were purchased from INDOFINE Chemical Company, Inc (USA). 10 ml of rumen fluid and 40 ml of incubation medium were added to the bottles (McDougall, El (1948) Studies on ruminant saliva. 1. The composition and output of sheep's saliva. Biochem J. 43(1) 99-109). Once the bottles were filled and the anaerobic condition was applied, the bottles were sealed and the incubation process was started in a hot water bath. […] Each sample was incubated in triplicate in two sets or batches.
The effects of flavonoids substances on fermentation activity of certain archea populations which are theoretically responsible for the methane production were analyzed.
The experimental design allows determining whether the effect of flavonoids on methane reduction was derived from a general reduction in microbial activity and biogas production or contrarily flavonoid affects specifically on methanogenic (archea) populations. The presence of flavonoids in the culture medium reduced methane contribution in the total biogas production (P<0.05) although, again, the aforementioned impact was heterogeneous.

ruminal bacteria = assay: Bacterial DNA concentration by qPCR; format: cell-based, calves; conditions: 12 hours of incubation
Method: (§3) Rumen cannulated calves which received a mixed ration mainly composed of concentrate (90:10) were used as rumen fluid donor; feed composition is presented in Table 1. The inoculum was collected and filtered through two-layer surgical gauze and kept in thermo pots. Flavonoids (Table 2) plus 600 mg of concentrate (Table 1) and 60 mg of barley straw as the substrate were dosed by triplicate in preheated bottles (39° C.) and maintained under anaerobic conditions. Flavonoids isonaringin, neoeritrocin, poncirin were purchased from INDOFINE Chemical Company, Inc (USA). 10 ml of rumen fluid and 40 ml of incubation medium were added to the bottles (McDougall, El (1948) Studies on ruminant saliva. 1. The composition and output of sheep's saliva. Biochem J. 43(1) 99-109). Once the bottles were filled and the anaerobic condition was applied, the bottles were sealed and the incubation process was started in a hot water bath. Pressure readings were made at 2, 4, 6, 8, 12, 24, 36 and 48 hours. Each sample was incubated in triplicate in two sets or batches.
(§4) After 12 hours of incubation, one bottle (replicate) from each treatment was opened, pH was recorded and the bottle was sampled for volatile fatty acids (Jouany, J. P., 1982 Science des Aliments 2, 131-144), lactate (Taylor, K. A. C. C., 1996. Appl. Biochem. Biotechnol. Enzym. Eng. Biotechnol. 56, 49-58) and ammonia (Chaney, A. L., Marbach, E. P., 1962. Clin. Chem. 8, 130-132) analyses.
(§5) The environmental DNA was extracted using the technique proposed by Yu and Morrison (2004). Quantification of Streptococcus bovis, Megasphaera elsdenii and Selenomonas ruminantium DNA was done by qPCR using specific primers (Tajima, K. et al. 2001. Appl. Environ. Microb. 67, 2766-2774; Ouwerkerk, D., et al. 2002. J. Appl. Microbiol. 92, 753-758). Results were statistically analyzed using the PROC MIXED procedure of SAS statistical package (SAS, 2000, User's guide: Statistics, version 8 editions inst., Inc., Cary, N.C.). The least significant difference was used to compare the means. Differences between means in which P<0.05 were accepted as significant.

Selenomonas ruminantium = assay: qPCR relative quantification of Selenomonas ruminantium; format: cell-based; conditions: 12 hours of incubation
Method: as §3, §4, §5

[2] = test system: "in vitro" ruminal fluid cultures; assay: Volatile fatty acid concentration and molar proportions in "in vitro" ruminal fluid cultures; format: cell-based, calves; conditions: for % Acetate, molar ratio, average (μ) / % Butyrate, molar ratio, average (μ) / % Propionate, molar ratio, average (M) / VFA concentration, average (μ): average over incubation times
Source text: as §1, §3
[…] P., 1982 Science des Aliments 2, 131-144), lactate (Taylor, K. A. C. C., 1996. Appl. Biochem. Biotechnol. Enzym. Eng. Biotechnol. 56, 49-58) and ammonia (Chaney, A. L., Marbach, E. P., 1962. Clin. Chem. 8, 130-132) analyses.

Streptococcus bovis = assay: qPCR relative quantification of Streptococcus bovis; format: cell-based; conditions: 12 hours of incubation
Method: as §3, §4, §5

[3] = test system: "in vitro" ruminal fluid cultures; assay: Ammonia (N-NH3) concentration in "in vitro" ruminal fluid cultures; format: cell-based, calves; conditions: 72 h
Megasphaera elsdenii = assay: qPCR relative quantification of Megasphaera elsdenii; format: cell-based; conditions: 12 hours of incubation
Method: as §3, §4, §5

[4] = test system: "in vitro" ruminal fluid culture; assay: Lactate concentration in "in vitro" ruminal fluid culture; format: cell-based, calves; conditions: 12 hours of incubation
Source text: as §1, §3, §4

[5] = test system: "in vitro" rumen fluid culture; assay: Biogas production in "in vitro" rumen fluid culture (pressure meter); format: cell-based, calves; design: Average biogas production / Cumulative biogas production / Biogas production: unit not given here; conditions: Exp 1; for Average biogas production: average over doses and incubation times
Method: as §1
Gas production was determined from a semi-automatic pressure meter, the relationship between pressure levels and the produced gas volume was previously calculated.
as §2

[6] = test system: "in vitro" ruminal fluid cultures; assay: Ammonia (N-NH3) concentration in "in vitro" ruminal fluid cultures; format: cell-based, calves; conditions: for N-NH3 concentration, average (M): average over incubation times
Source text: as §1, §3, §4

[7] = average over doses and incubation times
[8] = average over doses and incubation times, listed as neoeriocitrin

SMILES: C[C@@H]1O[C@@H](O[C@H]2[C@H](Oc3cc(O)c4c(c3)O[C@H](c3ccc(O)cc3)CC4=O)O[C@H](CO)[C@@H](O)[C@@H]2O)[C@H](O)[C@H](O)[C@H]1O [Naringin, naringin]
- Accumulated methane production ([1]; 12 h): 23.38
- Proportion of methane in the produced biogas ([1]; 12 h): 12.04
- Accumulated methane production ([1]; 24 h): 29.46
- Proportion of methane in the produced biogas ([1]; 24 h): 14.28
- Accumulated methane production ([1]; 48 h): 34.93
- Proportion of methane in the produced biogas ([1]; 48 h): 16.14
- Accumulated methane production ([1]; 72 h): 38.24
- Proportion of methane in the produced biogas ([1]; 72 h): 16.97
- Proportion of methane in the produced biogas [1, 7]: 14.86^b
- Average methane production ([1]; average over doses and incubation times, listed as Naringina): 31.50^b
- Average methane production ([1]; average over doses and incubation times, listed as naringin): not modified
- Methane production ([1]; dose 1, 0.2 g/kg DM): 32.28
- Proportion of methane in the produced biogas ([1]; dose 1, 0.2 g/kg DM): 14.87
- Methane production ([1]; dose 2, 0.5 g/kg DM): 30.73
- Proportion of methane in the produced biogas ([1]; dose 2, 0.5 g/kg DM): 14.85
- Bacteria DNA (ruminal bacteria): 22.15 ^ab μg/ml
- Relative Quantification 2^(ΔΔCt) S. ruminantium (Selenomonas ruminantium): 0.74
- % Acetate, molar ratio ([2]; 0 h): 62.51 mol/100 mol
- % Butyrate, molar ratio ([2]; 0 h): 9.07 mol/100 mol
- % Propionate, molar ratio ([2]; 0 h): 20.03 mol/100 mol
- A/P rate (acetate/propionate) ([2]; 0 h): 3.12
- VFA concentration ([2]; 0 h (initial constant value)): 13.78 mmol/L
- % Acetate, molar ratio ([2]; 12 h): 53.70 mol/100 mol
- % Butyrate, molar ratio ([2]; 12 h): 10.47 mol/100 mol
- % Propionate, molar ratio ([2]; 12 h): 30.00 mol/100 mol
- A/P rate (acetate/propionate) ([2]; 12 h): 1.79
- VFA concentration ([2]; 12 h): 35.23 mmol/L
- % Acetate, molar ratio ([2]; 72 h): 55.34 mol/100 mol
- % Butyrate, molar ratio ([2]; 72 h): 10.33 mol/100 mol
- % Propionate, molar ratio ([2]; 72 h): 26.75 mol/100 mol
- A/P rate (acetate/propionate) ([2]; 72 h): 2.07
- VFA concentration ([2]; 72 h): 51.03 mmol/L
- % Acetate, molar ratio, average (μ) [2]: 57.18 mol/100 mol
- % Butyrate, molar ratio, average (μ) [2]: 9.96 ^ab mol/100 mol
- % Propionate, molar ratio, average (M) [2]: 25.59 ^b mol/100 mol
- VFA concentration, average (μ) [2]: 33.35 mmol/L
- % Propionate, molar ratio, average (M) ([2]; listed as naringin): improved
- Relative Quantification 2^(ΔΔCt) S. bovis (Streptococcus bovis): 0.48
- N-NH3 concentration [3]: 336.25 mg/L
- Relative Quantification 2^(ΔΔCt) M. elsdenii (Megasphaera elsdenii): 1.26 ^c
- Lactate [4]: 77.8 mg/L
- Cumulative biogas production ([5]; 12 h incubation): 193.90
- Cumulative biogas production ([5]; 24 h incubation): 236.91
- Cumulative biogas production ([5]; 48 h incubation): 270.98
- Cumulative biogas production ([5]; 72 h incubation): 290.91
- Average biogas production [5]: 248.17^bc
- Average biogas production ([5]; listed as naringin): did not change
- Biogas production ([5]; dose 1, 0.2 g/kg DM): 251.15
- Biogas production ([5]; dose 2, 0.5 g/kg DM): 245.19
- N-NH3 concentration ([6]; 0 h (initial constant value)): 149.99 mg/L
- N-NH3 concentration ([6]; 12 h): 172.47 mg/L
- N-NH3 concentration, average (M) [6]: 219.57 mg/L

SMILES: C[C@@H]1O[C@@H](O[C@H]2[C@H](Oc3cc(O)c4c(c3)O[C@H](c3ccc(O)c(O)c3)CC4=O)O[C@H](CO)[C@@H](O)[C@@H]2O)[C@H](O)[C@H](O)[C@H]1O [Neoeriocitrin]
- Dosage effect on methane proportion of biogas ([1]; 500 vs. 200 mg/kg DM): tended to depress methane production
- Accumulated methane production ([1]; 12 h): 29.65
- Proportion of methane in the produced biogas ([1]; 12 h): 14.00
- Accumulated methane production ([1]; 24 h): 37.03
- Proportion of methane in the produced biogas ([1]; 24 h): 15.75
- Accumulated methane production ([1]; 48 h): 41.74
- Proportion of methane in the produced biogas ([1]; 48 h): 16.33
- Accumulated methane production ([1]; 72 h): 45.18
- Proportion of methane in the produced biogas ([1]; 72 h): 18.19
- Average methane production [1, 7]: 38.40^a
- Proportion of methane in the produced biogas [1, 7]: 16.07^a
- Average methane production [1, 8]: increased
- Proportion of methane in the produced biogas [1, 8]: significantly increased; also recorded: increased the methane proportion
- Methane production ([1]; dose 1, 0.2 g/kg DM): 39.51
- Proportion of methane in the produced biogas ([1]; dose 1, 0.2 g/kg DM): 15.96
- Methane production ([1]; dose 2, 0.5 g/kg DM): 37.28
- Proportion of methane in the produced biogas ([1]; dose 2, 0.5 g/kg DM): 16.17
- Bacteria DNA (ruminal bacteria): 13.14 ^a μg/ml
- Relative Quantification 2^(ΔΔCt) S. ruminantium (Selenomonas ruminantium): 0.79
- % Acetate, molar ratio ([2]; 0 h): 62.51 mol/100 mol
- % Butyrate, molar ratio ([2]; 0 h): 9.07 mol/100 mol
- % Propionate, molar ratio ([2]; 0 h): 20.03 mol/100 mol
- A/P rate (acetate/propionate) ([2]; 0 h): 3.12
- VFA concentration ([2]; 0 h (initial constant value)): 13.78 mmol/L
- % Acetate, molar ratio ([2]; 12 h): 55.73 mol/100 mol
- % Butyrate, molar ratio ([2]; 12 h): 11.84 mol/100 mol
- % Propionate, molar ratio ([2]; 12 h): 26.77 mol/100 mol
- A/P rate (acetate/propionate) ([2]; 12 h): 2.09
- VFA concentration ([2]; 12 h): 39.75 mmol/L
- % Acetate, molar ratio ([2]; 72 h): 56.21 mol/100 mol
- % Butyrate, molar ratio ([2]; 72 h): 11.79 mol/100 mol
- % Propionate, molar ratio ([2]; 72 h): 24.39 mol/100 mol
- A/P rate (acetate/propionate) ([2]; 72 h): 2.31
- VFA concentration ([2]; 72 h): 53.75 mmol/L
- % Acetate, molar ratio, average (μ) [2]: 58.15 mol/100 mol
- % Butyrate, molar ratio, average (μ) [2]: 10.90 ^b mol/100 mol
- % Propionate, molar ratio, average (M) [2]: 23.73 ^a mol/100 mol
- VFA concentration, average (μ) [2]: 35.76 mmol/L
- % Propionate, molar ratio, average (M) ([2]; listed as neoeritrocin): 23.7 mol/100 mol
- Relative Quantification 2^(ΔΔCt) S. bovis (Streptococcus bovis): 0.62
- N-NH3 concentration [3]: 347.34 mg/L
- Relative Quantification 2^(ΔΔCt) M. elsdenii (Megasphaera elsdenii): 0.76 ^a
- Lactate [4]: 122.5 mg/L
- Cumulative biogas production ([5]; 12 h incubation): 211.78
- Cumulative biogas production ([5]; 24 h incubation): 259.11
- Cumulative biogas production ([5]; 48 h incubation): 288.43
- Cumulative biogas production ([5]; 72 h incubation): 307.80
- Biogas production ([5]; dose 1, 0.2 g/kg DM): 277.08
- Biogas production ([5]; dose 2, 0.5 g/kg DM): 256.47
- N-NH3 concentration ([6]; 0 h (initial constant value)): 149.99 mg/L
- N-NH3 concentration ([6]; 12 h): 186.19 mg/L
- N-NH3 concentration, average (M) [6]: 227.84 mg/L
